Data published in article PMC5444726, “A CD44-specific peptide, RP-1, exhibits capacities of assisting diagnosis and predicting prognosis of gastric cancer” (Oncotarget, 2017).

Tested on: CD44 in gastric carcinoma and surrounding tissues
Experiment: Immunohistochemistry of human gastric cancer tissue microarray
Settings: for RP-1 staining negative, number (%) / RP-1 staining positive, number (%): % of all 100 cases
Protocol: Prepared paraffin-embedded sections were deparaffinized, rehydrated, retrieved and blocked with 5% BSA (w/v) in PBS at ambient temperature for 30 min. Then, sections were incubated with 100 μM biotin labeled RP-1 peptide or human specific rabbit anti-CD44 monoclonal antibody (1:200, ZSGB-BIO, Beijing, China) overnight at 4°C. After PBS washing for three times, sections were subsequently incubated with streptavidin-HRP (1:500, Proteintech, Wuhan, China) and goat anti-rabbit secondary antibody (1:300, BOSTER, Wuhan, China). Diaminobenzidine (DAB, ZSGB-BIO, Beijing, China) was used as a chromogen. Finally, the sections were counterstained with hematoxylin and mounted with neutral balsam.
Two TMA slides (Shanghai Outdo Biotech Co LTD, Shanghai, China), each containing 100 GC tissues samples (including 66 adenocarcinoma, 19 tubular adenocarcinoma, 8 mucinous adenocarcinoma, 2 undifferentiated carcinoma and 5 signet-ring cell carcinoma tissue samples) and 80 surrounding tissue samples from 100 patients, were used to evaluate the diagnostic and prognostic effects of RP-1. Samples were obtained from treatment-naive patients with written informed consent signed and dated. Age of the 100 patients with GC ranged from 32 to 81 years (mean, 64.4 years). Their clinicopathological characteristics were described in Table 2. The TNM stage of all patients with GC was assessed according to the American Joint Commission for Cancer (AJCC 7th edition) and tumors were histologically classified according to the criteria described by the World Health Organization (2000). The Medical Ethics Committee of Taizhou Hospital of Zhejiang province reviewed and approved all studies.
We performed immunohistochemical staining of TMA slides with RP-1 and human specific anti-CD44 monoclonal antibody by following the procedure described in the section Immunohistochemistry. The immunoreactivity was assessed with the immunohistochemistry score (HSCORE) system, which evaluated the staining intensity and percentages of positive cells stained at a specific magnitude of intensity. The HSCORE was calculated using the equation HSCORE=∑Pi(i) (i = 0, 1, 2, 3, Pi = 0–100%), in which i was the staining intensity (0, no staining; 1, weak staining; 2, moderate staining; 3, strong staining) and Pi was the percentage of positive cells on a scale of 0% to 100%. Positive cell count was assessed in 5 randomly selected fields of vision with a microscope (400×). All immunohistochemical evaluations were conducted by two independent pathologists […].
Receiver–operator curve (ROC) analysis was performed to determine the cut-off score for both RP-1 peptide and anti-CD44 monoclonal antibody. The score closest to the point (0.0, 1.0) with maximum sensitivity and specificity was identified as the cut-off score. Samples with a HSCORE of cut-off value or below were considered as negative staining, otherwise they were considered as positive staining.
Statistical analysis was conducted with SPSS software, version 21.0 (IBM, New York, USA). Kappa values were used to determine the consistency of histological and immunohistochemical results between RP-1 peptide and anti-CD44 antibody. Independent sample t-test was performed to decide existence of statistical difference in fluorescent intensity values between tumor and other normal organs. The ROC analysis was carried out to decide the cut-off value for RP-1 and anti-CD44 antibody. The area under the curve (AUC) was calculated to compare the diagnostic accuracy of RP-1 and anti-CD44 antibody. χ^2-test was used to assess the association between each clinicopathological variable and RP-1 staining intensity, while log-rank test was used for assessing the association between survival and each clinicopathological variable. Multiple Cox proportional hazards regression was performed to verify if RP-1 positivity can be used as an independent risk factor for prognosis of GC. […]

[1] = adenocarcinoma, 66 cases, P = 0.182
[2] = age > 64.4, 46 cases, P = 0.036
[3] = age ≤ 64.4, 54 cases, P = 0.036
[4] = all antibody results, total 100
[5] = clinicopathological stage I, 10 cases, P = 0.526
[6] = clinicopathological stage II, 32 cases, P = 0.526
[7] = clinicopathological stage III, 50 cases, P = 0.526
[8] = clinicopathological stage IV, 8 cases, P = 0.526
[9] = moderately differentiated, 69 cases, P = 0.066
[10] = mucinous adenocarcinoma, 8 cases, P = 0.182
[11] = poorly differentiated, 5 cases, P = 0.066
[12] = signet ring cell carcinoma, 4 cases, P = 0.182
[13] = tubular adenocarcinoma, 19 cases, P = 0.182
[14] = undifferentiated carcinoma, 3 cases, P = 0.182
[15] = well differentiated, 26 cases, P = 0.066

WHPWSYLWTQQA [RP-1, CD44-specific peptide … screened from a 12-mer phage peptide library]
RP-1 staining negative, number (%) [1]: 16 (16.0)
RP-1 staining positive, number (%) [1]: 50 (50.0)
RP-1 staining negative, number (%) [2]: 12 (12.0)
RP-1 staining positive, number (%) [2]: 34 (34.0)
RP-1 staining negative, number (%) [3]: 15 (15.0)
RP-1 staining positive, number (%) [3]: 39 (39.0)
number of pericarcinomatous tissues RP-1 negative (all antibody results, total 80): 70
number of pericarcinomatous tissues RP-1 positive (all antibody results, total 80): 10
number of gastric carcinoma tissues RP-1 negative [4]: 27
number of gastric carcinoma tissues RP-1 positive [4]: 73
number of gastric carcinoma tissues RP-1 negative (antibody negative): 18
number of gastric carcinoma tissues RP-1 positive (antibody negative): 18
number of pericarcinomatous tissues RP-1 negative (antibody negative): 56
number of pericarcinomatous tissues RP-1 positive (antibody negative): 9
number of gastric carcinoma tissues RP-1 negative (antibody positive): 9
number of gastric carcinoma tissues RP-1 positive (antibody positive): 55
number of pericarcinomatous tissues RP-1 negative (antibody positive): 14
number of pericarcinomatous tissues RP-1 positive (antibody positive): 1
RP-1 staining negative, number (%) [5]: 4 (4.0)
RP-1 staining positive, number (%) [5]: 6 (6.0)
RP-1 staining negative, number (%) [6]: 10 (10.0)
RP-1 staining positive, number (%) [6]: 22 (22.0)
RP-1 staining negative, number (%) [7]: 12 (12.0)
RP-1 staining positive, number (%) [7]: 38 (38.0)
RP-1 staining negative, number (%) [8]: 1 (1.0)
RP-1 staining positive, number (%) [8]: 7 (7.0)
RP-1 staining negative, number (%) (died, 69 cases, P < 0.001): 11 (11.0)
RP-1 staining positive, number (%) (died, 69 cases, P < 0.001): 58 (58.0)
RP-1 staining negative, number (%) (female, 36 cases, P = 0.895): 10 (10.0)
RP-1 staining positive, number (%) (female, 36 cases, P = 0.895): 26 (26.0)
RP-1 staining negative, number (%) (male, 64 cases, P = 0.895): 17 (17.0)
RP-1 staining positive, number (%) (male, 64 cases, P = 0.895): 47 (47.0)
RP-1 staining negative, number (%) [9]: 21 (21.0)
RP-1 staining positive, number (%) [9]: 53 (53.0)
RP-1 staining negative, number (%) [10]: 5 (5.0)
RP-1 staining positive, number (%) [10]: 3 (3.0)
RP-1 staining negative, number (%) (pM0, 91 cases, P = 0.260): 26 (26.0)
RP-1 staining positive, number (%) (pM0, 91 cases, P = 0.260): 65 (65.0)
RP-1 staining negative, number (%) (pM1, 9 cases, P = 0.260): 1 (1.0)
RP-1 staining positive, number (%) (pM1, 9 cases, P = 0.260): 8 (8.0)
RP-1 staining negative, number (%) (pN0, 27 cases, P = 0.101): 6 (6.0)
RP-1 staining positive, number (%) (pN0, 27 cases, P = 0.101): 21 (21.0)
RP-1 staining negative, number (%) (pN1, 15 cases, P = 0.101): 8 (8.0)
RP-1 staining positive, number (%) (pN1, 15 cases, P = 0.101): 7 (7.0)
RP-1 staining negative, number (%) (pN2, 28 cases, P = 0.101): 6 (6.0)
RP-1 staining positive, number (%) (pN2, 28 cases, P = 0.101): 22 (22.0)
RP-1 staining negative, number (%) (pN3, 30 cases, P = 0.101): 7 (7.0)
RP-1 staining positive, number (%) (pN3, 30 cases, P = 0.101): 23 (23.0)
RP-1 staining negative, number (%) (pT1, 8 cases, P = 0.399): 3 (3.0)
RP-1 staining positive, number (%) (pT1, 8 cases, P = 0.399): 5 (5.0)
RP-1 staining negative, number (%) (pT2, 9 cases, P = 0.399): 1 (1.0)
RP-1 staining positive, number (%) (pT2, 9 cases, P = 0.399): 6 (6.0)
RP-1 staining negative, number (%) (pT3, 66 cases, P = 0.399): 20 (20.0)
RP-1 staining positive, number (%) (pT3, 66 cases, P = 0.399): 45 (45.0)
RP-1 staining negative, number (%) (pT4, 17 cases, P = 0.399): 3 (3.0)
RP-1 staining positive, number (%) (pT4, 17 cases, P = 0.399): 17 (17.0)
RP-1 staining negative, number (%) [11]: 0 (0.0)
RP-1 staining positive, number (%) [11]: 11 (11.0)
RP-1 staining negative, number (%) [12]: 1 (1.0)
RP-1 staining positive, number (%) [12]: 4 (4.0)
RP-1 staining negative, number (%) (survived, 31 cases, P < 0.001): 16 (16.0)
RP-1 staining positive, number (%) (survived, 31 cases, P < 0.001): 15 (15.0)
HSCORE of GC samples versus surrounding tissue (t-test, P < 0.001): significantly higher
cell types stained positive (tissue microarray, gastric carcinoma and surrounding tissue): positive only in tumor cells
RP-1 staining negative, number (%) [13]: 5 (5.0)
RP-1 staining positive, number (%) [13]: 14 (14.0)
RP-1 staining negative, number (%) [14]: 0 (0.0)
RP-1 staining positive, number (%) [14]: 2 (2.0)
RP-1 staining negative, number (%) [15]: 6 (6.0)
RP-1 staining positive, number (%) [15]: 9 (9.0)
